Structures can show the parent of a compound that is named as a salt.
Legend:
[1] = molecular target: T1, EGFR TMLR (T790M/L858R), H1975 cell line (Homo sapiens, UniProt P00533, L858R/T790M); assay: HTRF Phospho EGFR TMLR Assay (Cellular); type: cell-based; details: H1975 cells, 16 hours compound incubation
T1 construct: H1975 cell line (CRL-5908; Lot BA70803) was obtained from American Type Culture Collection; host or cells: H1975
Procedure: HTRF Phospho EGFR TMLR Assay (Cellular)
H1975 cell line (CRL-5908; Lot BA70803) was obtained from American Type Culture Collection (Manassas, Va., USA). Cells were maintained at 37° C., 5% CO2 in complete Media RPMI 1640 without phenol red containing 0.3 mg/ml glutamine, 100 IU/ml penicillin, and […] streptomycin (Gibco, 15140-122) supplemented with 10% fetal bovine serum (FBS, Gibco, 10091-148). Compounds were diluted into starving medium RPMI 1640 Media (Gibco, 11835-030) without phenol red containing 0.3 mg/ml glutamine, 100 IU/ml penicillin, and […] streptomycin (Gibco).
Cells were cultured for 24 h in a 384-well plate (Greiner Bio-One, Nr. 784-080; 5000 cells/well) using 8 μl of complete medium/well. Then 4 µl/well of the 3× compound solution, containing a factor 3 dilution series of the compound or DMSO in starving medium, were added to the cells (final DMSO 0.33%). After 16 hours at 37° C., 5% CO2, 95% rel. humidity cells were lysed by adding to the compound mix 4 µl/well of the supplemented lysis buffer (Cis-bio, Phospho-EGFR HTRF kit, 64EG1PEH), followed by incubation for 30 min at room temperature with shaking (400 rpm). Then 4 μl of a mixture of anti-Phospho-EGFR Cryptate and of anti-Phospho-EGFR-d2 antibody solutions prepared in the detection buffer was added. The plates were then incubated for 4 h at room temperature before reading the fluorescence emission at 620 and 665 nm using an Envision reader (Perkin Elmer).

[2] = molecular target: T2, EGFR TMLRCS (T790M/L858R/C797S), BaF3-TMLRCS cell line (Homo sapiens, UniProt P00533, C797S/L858R/T790M); assay: HTRF Phospho EGFR TMLRCS Assay (Cellular); type: cell-based; details: BaF3-TMLRCS cells, 4 hours compound incubation
T2 construct: host or cells: BaF3
T2 sequence (P00533 25-1210 T790M/C797S/L858R): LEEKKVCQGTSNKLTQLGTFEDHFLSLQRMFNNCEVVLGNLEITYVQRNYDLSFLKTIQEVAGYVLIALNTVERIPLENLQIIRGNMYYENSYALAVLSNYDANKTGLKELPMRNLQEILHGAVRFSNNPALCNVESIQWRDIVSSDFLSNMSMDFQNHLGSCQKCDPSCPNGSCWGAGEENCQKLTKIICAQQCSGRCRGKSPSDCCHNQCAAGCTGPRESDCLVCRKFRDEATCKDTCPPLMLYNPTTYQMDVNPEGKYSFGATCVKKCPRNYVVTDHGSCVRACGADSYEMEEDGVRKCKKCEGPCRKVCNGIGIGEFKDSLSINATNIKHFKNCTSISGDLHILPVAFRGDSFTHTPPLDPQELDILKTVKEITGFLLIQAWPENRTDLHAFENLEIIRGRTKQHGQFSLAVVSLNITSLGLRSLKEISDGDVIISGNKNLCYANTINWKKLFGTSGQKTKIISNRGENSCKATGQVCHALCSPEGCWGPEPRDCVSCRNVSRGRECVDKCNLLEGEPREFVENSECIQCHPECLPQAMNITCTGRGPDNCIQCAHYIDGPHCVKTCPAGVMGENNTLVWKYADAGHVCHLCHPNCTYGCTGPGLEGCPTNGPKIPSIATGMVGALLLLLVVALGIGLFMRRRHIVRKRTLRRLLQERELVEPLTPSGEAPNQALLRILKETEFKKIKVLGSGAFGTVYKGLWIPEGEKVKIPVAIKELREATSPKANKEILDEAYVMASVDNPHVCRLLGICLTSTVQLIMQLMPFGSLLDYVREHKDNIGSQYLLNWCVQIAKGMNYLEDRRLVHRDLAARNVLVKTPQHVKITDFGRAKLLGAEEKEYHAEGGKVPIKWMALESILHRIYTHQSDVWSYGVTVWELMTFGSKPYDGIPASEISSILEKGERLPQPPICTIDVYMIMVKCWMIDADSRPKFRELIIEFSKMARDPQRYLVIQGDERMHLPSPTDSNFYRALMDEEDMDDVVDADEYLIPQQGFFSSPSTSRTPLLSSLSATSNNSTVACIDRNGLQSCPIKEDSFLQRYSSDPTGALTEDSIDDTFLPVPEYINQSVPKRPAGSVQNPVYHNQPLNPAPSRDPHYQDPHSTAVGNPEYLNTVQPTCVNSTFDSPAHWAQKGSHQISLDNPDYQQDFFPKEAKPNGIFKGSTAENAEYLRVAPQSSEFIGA
Procedure: HTRF Phospho EGFR TMLRCS Assay (Cellular)
BaF3-TMLRCS cell line were obtained from Crownbio (San Diego, Calif., USA). Cells were maintained at 37° C., 5% CO2 in RPMI ATCC (Gibco 31870)+2 mM Glutamine+0.5 μg/ml Puromycin supplemented with 10% fetal bovine serum (FBS) (Gibco).
Cells are transferred as above to Greiner Bio-One, Nr. 784-08 micro-titerplate at 20000 cells/well in 12.5 μl of growth medium/well after the plates had been pre-filled with 12.5 nl of DMSO solutions of the to be tested compounds (in dose response) or DMSO only. After spinning the plates at 300×g for 30 seconds the cells were incubated for 4 hours at 37 C, 5% CO2, 95% humidity. The cells were lysed by adding to the compound mix 4 µl/well of the supplemented lysis buffer (Cis-bio, Phospho-EGFR HTRF kit, 64EG1PEH), followed by incubation for 30 min at room temperature with shaking (400 rpm). The plates were then frozen and stored overnight at −80 C. On the next day and after thawing the plates, 4 μl of a mixture of anti-Phospho-EGFR Cryptate and of anti-Phospho-EGFR-d2 antibody solutions prepared in the supplied detection buffer was added to each well. The lidded plates were then incubated for 4 h at room temperature before reading the fluorescence emission at 616 and 665 nm using an Envision reader (Perkin Elmer). Data was analyzed in similar fashion as above using the normalized ratio of the 665 to 616 signals multiplied by 10000.

T1 sequence (P00533 25-1210 T790M/L858R): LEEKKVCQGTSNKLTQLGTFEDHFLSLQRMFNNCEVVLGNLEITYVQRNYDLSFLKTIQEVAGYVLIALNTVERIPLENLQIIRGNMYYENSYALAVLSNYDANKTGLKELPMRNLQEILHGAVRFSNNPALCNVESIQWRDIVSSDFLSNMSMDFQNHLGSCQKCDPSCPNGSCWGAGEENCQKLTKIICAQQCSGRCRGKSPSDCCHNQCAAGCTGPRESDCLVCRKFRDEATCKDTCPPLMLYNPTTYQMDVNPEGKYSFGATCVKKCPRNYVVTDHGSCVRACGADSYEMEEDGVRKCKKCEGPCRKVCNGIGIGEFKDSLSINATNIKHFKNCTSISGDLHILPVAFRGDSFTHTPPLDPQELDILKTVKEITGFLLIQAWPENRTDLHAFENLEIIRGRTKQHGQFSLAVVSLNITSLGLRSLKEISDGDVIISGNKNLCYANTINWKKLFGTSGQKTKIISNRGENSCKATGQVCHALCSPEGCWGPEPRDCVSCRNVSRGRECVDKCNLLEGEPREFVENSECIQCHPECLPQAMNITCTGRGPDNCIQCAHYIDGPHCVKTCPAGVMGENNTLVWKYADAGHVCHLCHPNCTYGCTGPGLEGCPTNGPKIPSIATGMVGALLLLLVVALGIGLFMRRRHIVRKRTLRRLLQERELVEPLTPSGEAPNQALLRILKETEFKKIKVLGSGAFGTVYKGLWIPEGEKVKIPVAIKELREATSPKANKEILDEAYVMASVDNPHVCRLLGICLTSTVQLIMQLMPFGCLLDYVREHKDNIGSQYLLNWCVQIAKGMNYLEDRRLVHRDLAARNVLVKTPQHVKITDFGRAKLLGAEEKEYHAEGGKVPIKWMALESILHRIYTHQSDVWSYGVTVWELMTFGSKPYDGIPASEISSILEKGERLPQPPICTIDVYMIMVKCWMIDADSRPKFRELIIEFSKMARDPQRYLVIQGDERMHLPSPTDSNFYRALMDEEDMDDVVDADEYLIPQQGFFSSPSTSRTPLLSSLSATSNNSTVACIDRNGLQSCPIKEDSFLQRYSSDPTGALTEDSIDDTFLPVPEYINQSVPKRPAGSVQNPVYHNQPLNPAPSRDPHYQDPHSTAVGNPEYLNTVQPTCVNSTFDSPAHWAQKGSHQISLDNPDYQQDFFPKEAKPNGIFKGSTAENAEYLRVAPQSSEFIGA

COc1c(-c2ccc3c(c2)CCC(=O)N3C)cc(Cl)c2cn(C(C(=O)Nc3nccs3)c3ncn4c3C[C@@H](F)C4)nc12 (mixture of isomers) [Example 20, 2-[4-Chloro-7-methoxy-6-(1-methyl-2-oxo-3,4-dihydroquinolin-6-yl)indazol-2-yl]-2-[rac-(6R)-6-fluoro-6,7-dihydro-5H-pyrrolo[1,2-c]imidazol-1-yl]-N-(1,3-thiazol-2-yl)acetamide]
IC50 [1]: 1 nM

CCN1CCN(c2ccc(-c3cc(Cl)c4cn(C(C(=O)Nc5nccs5)c5ncn6c5C[C@@H](F)C6)nc4c3OC)cc2)CC1 (mixture of isomers) [Example 21, 2-[4-Chloro-6-[4-(4-ethylpiperazin-1-yl)phenyl]-7-methoxyindazol-2-yl]-2-[rac-(6R)-6-fluoro-6,7-dihydro-5H-pyrrolo[1,2-c]imidazol-1-yl]-N-(1,3-thiazol-2-yl)acetamide]
IC50 [1]: 3 nM

COc1c(-c2ccc(C3CCN(C4CC4)CC3)cc2)cc(Cl)c2cn(C(C(=O)Nc3nccs3)c3ncn4c3C[C@@H](F)C4)nc12 (mixture of isomers) [Example 22, 2-[4-Chloro-6-[4-(1-cyclopropylpiperidin-4-yl)phenyl]-7-methoxyindazol-2-yl]-2-[rac-(6R)-6-fluoro-6,7-dihydro-5H-pyrrolo[1,2-c]imidazol-1-yl]-N-(1,3-thiazol-2-yl)acetamide]
IC50 [1]: 5 nM

O=C(Nc1nccs1)C(c1ncn2c1CCC2)n1cc2c(Cl)cc(-c3ccc(N4CCNCC4)cc3)cc2n1 (stereo not drawn) [Example 1, 2-(4-Chloro-6-(4-(piperazin-1-yl)phenyl)-2H-indazol-2-yl)-2-(6,7-dihydro-5H-pyrrolo[1,2-c]imidazol-1-yl)-N-(thiazol-2-yl)acetamide hydrochloride]
IC50 [2]: 7 nM | IC50 [1]: 3 nM

CC(=O)N1CCN(c2ccc(-c3cc(Cl)c4cn(C(C(=O)Nc5nccs5)c5ncn6c5CCC6)nc4c3)cc2)CC1 (stereo not drawn) [Example 2, 2-(6-(4-(4-Acetylpiperazin-1-yl)phenyl)-4-chloro-2H-indazol-2-yl)-2-(6,7-dihydro-5H-pyrrolo[1,2-c]imidazol-1-yl)-N-(thiazol-2-yl)acetamide]
IC50 [2]: 5 nM | IC50 [1]: 0.4 nM

O=C(Nc1nccs1)C(c1ncn2c1CCC2)n1cc2c(Cl)cc(-c3ccc(N4CCNCC4)c(Cl)c3)cc2n1 (stereo not drawn) [Example 3, 2-(4-Chloro-6-(3-chloro-4-(piperazin-1-yl)phenyl)-2H-indazol-2-yl)-2-(6,7-dihydro-5H-pyrrolo[1,2-c]imidazol-1-yl)-N-(thiazol-2-yl)acetamide hydrochloride]
IC50 [1]: 9 nM

CCN1CCN(c2ccc(-c3cc(Cl)c4cn(C(C(=O)Nc5nccs5)c5ncn6c5CCC6)nc4c3)cc2Cl)CC1 (stereo not drawn) [Example 4, 2-(4-Chloro-6-(3-chloro-4-(4-ethylpiperazin-1-yl)phenyl)-2H-indazol-2-yl)-2-(6,7-dihydro-5H-pyrrolo[1,2-c]imidazol-1-yl)-N-(thiazol-2-yl)acetamide]
IC50 [2]: 14 nM | IC50 [1]: 11 nM

O=C(Nc1nccs1)C(c1ncn2c1C[C@@H](F)C2)n1cc2c(F)cc(-c3ccc(N4CCNCC4)c(Cl)c3)cc2n1 (stereo partly drawn) [Example 6, 2-(6-(3-Chloro-4-(piperazin-1-yl)phenyl)-4-fluoro-2H-indazol-2-yl)-2-((R)-6-fluoro-6,7-dihydro-5H-pyrrolo[1,2-c]imidazol-1-yl)-N-(thiazol-2-yl)acetamide hydrochloride]
IC50 [1]: 3 nM

CC(=O)N1CCN(c2ccc(-c3cc(F)c4cn(C(C(=O)Nc5nccs5)c5ncn6c5C[C@@H](F)C6)nc4c3)cc2Cl)CC1 (stereo partly drawn) [Example 7, 2-(6-(4-(4-Acetylpiperazin-1-yl)-3-chlorophenyl)-4-fluoro-2H-indazol-2-yl)-2-((R)-6-fluoro-6,7-dihydro-5H-pyrrolo[1,2-c]imidazol-1-yl)-N-(thiazol-2-yl)acetamide]
IC50 [1]: 1 nM

CCN1CCN(c2ccc(-c3cc(F)c4cn(C(C(=O)Nc5nccs5)c5ncn6c5C[C@@H](F)C6)nc4c3)cc2Cl)CC1 (stereo partly drawn) [Example 8, 2-(6-(3-Chloro-4-(4-ethylpiperazin-1-yl)phenyl)-4-fluoro-2H-indazol-2-yl)-2-((R)-6-fluoro-6,7-dihydro-5H-pyrrolo[1,2-c]imidazol-1-yl)-N-(thiazol-2-yl)acetamide]
IC50 [1]: 5 nM

O=C(Nc1nccs1)C(c1ncn2c1CCC2)n1cc2c(Cl)cc(-c3ccc(N4CCNCC4)cc3)c(Cl)c2n1 (stereo not drawn) [Example 9, 2-(4,7-Dichloro-6-(4-(piperazin-1-yl)phenyl)-2H-indazol-2-yl)-2-(6,7-dihydro-5H-pyrrolo[1,2-c]imidazol-1-yl)-N-(thiazol-2-yl)acetamide hydrochloride]
IC50 [1]: 2 nM

CC(=O)N1CCN(c2ccc(-c3cc(Cl)c4cn(C(C(=O)Nc5nccs5)c5ncn6c5CCC6)nc4c3Cl)cc2)CC1 (stereo not drawn) [Example 12, 2-(6-(4-(4-Acetylpiperazin-1-yl)phenyl)-4,7-dichloro-2H-indazol-2-yl)-2-(6,7-dihydro-5H-pyrrolo[1,2-c]imidazol-1-yl)-N-(thiazol-2-yl)acetamide]
IC50 [1]: 1 nM

CCN1CCN(c2ccc(-c3cc(Cl)c4cn(C(C(=O)Nc5nccs5)c5ncn6c5CCC6)nc4c3Cl)cc2)CC1 (stereo not drawn) [Example 13, 2-(4,7-Dichloro-6-(4-(4-ethylpiperazin-1-yl)phenyl)-2H-indazol-2-yl)-2-(6,7-dihydro-5H-pyrrolo[1,2-c]imidazol-1-yl)-N-(thiazol-2-yl)acetamide]
IC50 [2]: 11 nM | IC50 [1]: 1 nM

O=C(Nc1nccs1)C(c1ncn2c1CCC2)n1cc2c(Cl)cc(-c3ccc(N4CCNCC4)cc3)c(F)c2n1 (stereo not drawn) [Example 15, 2-(4-Chloro-7-fluoro-6-(4-(piperazin-1-yl)phenyl)-2H-indazol-2-yl)-2-(6,7-dihydro-5H-pyrrolo[1,2-c]imidazol-1-yl)-N-(thiazol-2-yl)acetamide hydrochloride]
IC50 [1]: 2 nM

CCN1CCN(c2ccc(-c3cc(Cl)c4cn(C(C(=O)Nc5nccs5)c5ncn6c5CCC6)nc4c3F)cc2)CC1 (stereo not drawn) [Example 16, 2-(4-Chloro-6-(4-(4-ethylpiperazin-1-yl)phenyl)-7-fluoro-2H-indazol-2-yl)-2-(6,7-dihydro-5H-pyrrolo[1,2-c]imidazol-1-yl)-N-(thiazol-2-yl)acetamide]
IC50 [1]: 2 nM

CN1C(=O)CCc2cc(-c3cc(Cl)c4cn(C(C(=O)Nc5nccs5)c5ncn6c5CCC6)nc4c3F)ccc21 (stereo not drawn) [Example 18, 2-(4-Chloro-7-fluoro-6-(1-methyl-2-oxo-1,2,3,4-tetrahydroquinolin-6-yl)-2H-indazol-2-yl)-2-(6,7-dihydro-5H-pyrrolo[1,2-c]imidazol-1-yl)-N-(thiazol-2-yl)acetamide]
IC50 [1]: 1 nM

CC(C)n1ccc(-c2cc(Cl)c3cn(C(C(=O)Nc4nccs4)c4ncn5c4CCC5)nc3c2F)cc1=O (stereo not drawn) [Example 23, 2-(4-Chloro-7-fluoro-6-(1-isopropyl-2-oxo-1,2-dihydropyridin-4-yl)-2H-indazol-2-yl)-2-(6,7-dihydro-5H-pyrrolo[1,2-c]imidazol-1-yl)-N-(thiazol-2-yl)acetamide]
IC50 [1]: 1 nM
